Measurements: patent US20090148506A1, “LIPOSOMAL FORMULATIONS COMPRISING SECONDARY AND TERTIARY AMINES AND METHODS FOR PREPARING THEREOF” (priority 2005, published 2009)
“Also recorded” adds a separate entry of the source.

How the values were obtained:
Assay type in all cases: physicochemical
[1] = Liposomal drug loading (encapsulation) at 50° C., Sephadex G-50 spin column, UV assay; settings: for liposomal encapsulation (result in words): 50° C. (FIG. 2); for increase of irinotecan/lipid molar ratio: TEA containing liposomes (FIG. 10); for irinotecan encapsulation efficiency: 50° C.
Procedure: The lipids were labeled with trace amounts of ^3H-cholesteryl hexadecyl ether, a non-exchangeable, non-metabolizeable lipid marker to allow liposome quantitation by scintillation counting. The solvent was evaporated under a stream of nitrogen and dried under vacuum for at least 4 hours. […] The mean size distribution of the resulting large unilamellar vesicles (80-120 nm) was determined using a Nicomp submicron particle sizer model 370 (Nicomp, Santa Barbara, Calif.). For irinotecan loading, the solutions of irinotecan were made by dissolving the drug either in water at 50° C. or in sucrose phosphate buffer (300 mM sucrose, 40 mM phosphate) at room temperature. When necessary, the pH of the solution was adjusted to the desired value using NaOH. The final concentration of irinotecan was 15 mM. […] The precipitate was isolated by centrifugation (12000 rpm, 15 min) and was solubilized with 2 mM EDTA in water. Similar preparations were employed for daunorubicin. For liposomal loading, the drug solution and the liposomes were incubated separately at 50° C. for approximately five minutes to equilibrate the temperature. […] Aliquots of 75 μl were applied to a Sephadex G-50 spin column. The columns were prepared by adding glass wool to a 1 ml syringe and Sephadex G-50 beads hydrated in sucrose phosphate buffer (300 mM sucrose, 40 mM phosphate, pH 7.0). The columns were packed by spinning at 290×g for 1 minute. Following addition of the sample to the column, the liposome fraction was collected in the void volume by centrifuging at 515×g for 1 minute. Aliquots of the spin column eluant and the pre-column solution were taken and analyzed by liquid scintillation counting to determine the lipid concentration at each time point. The irinotecan concentration in each liposomal fraction was determined using a UV-based assay. […] The samples were cooled to ambient temperature. The absorbance at 370 nm was measured and compared to a standard curve. The concentration of TEA was determined by HPLC.

[2] = Irinotecan loading into diethanolamine buffered liposomes at 50° C.; settings: 100 mM copper gluconate/140 mM diethanolamine pH 7.0 inside, sucrose/phosphate/EDTA buffer outside, target drug to lipid ratio 0.1 (FIG. 13)
Procedure: DSPC, cholesterol and DSPG were weighed out into capped scintillation vials. DSPC was dissolved in chloroform at 60 mg/ml, cholesterol was dissolved in chloroform at 25 mg/ml, and DSPG was dissolved in chloroform:methanol:water (50/10/1) at 30 mg/ml. The lipids were then combined in the appropriate proportions. […] A stream of N2 gas, while heating the mixture, was used to remove solvent. The resulting lipid films were left under vacuum for a few minutes, then redissolved in chloroform. The drying process was then repeated, and the lipid films were allowed to dry on a vacuum pump for 4+hours. […] MLVs were extruded at 70° C. through two 100 nm filters for a total of eight passes without difficulty. The liposomes were then allowed to cool down to room temperature. Samples were buffer exchanged into 300 mM sucrose/20 mM phosphate/10 mM EDTA, pH 7.0 by tangential flow. […] Clinical material of Irinotecan was used for a Irinotecan stock. Drug and liposome samples were pre-heated separately at 50° C. for 5 minutes, then combined at t=0. […] Samples of the spun column eluant and the pre-column solution were counted by liquid scintillation counting to determine the lipid concentration at each time point. Irinotecan concentrations were determined using a UV assay. […] Irinotecan is quantitated by absorbance at 370 nm against a standard curve.

[3] = Lactone/carboxylate form of irinotecan in solution (FTIR, HPLC)
Excerpt: FTIR measurements were made at room temperature in transmission mode using a Nicolet Nexus 870 spectrometer (Nicolet Instrument, Madison, Wis., USA) equipped with a liquid nitrogen-cooled mercury cadmium telluride detector. […] Inc. Buena, N.J.). The sample was dried with a stream of nitrogen and left overnight in a desiccator before recording the spectra. For each spectrum, 250 scans were co-added at a 4 cm^−1 resolution, using a Happ-Genzel apodization. Data analysis was done using the Grams AI software (Galactic Industries, Salem, N.H., USA). The second derivative of the spectra was performed to determine the frequency of the components of unresolved bands. Vibrational spectroscopy was used to further investigate the potential interaction between irinotecan and copper in free solution. […] Since irinotecan has several possible binding sites, tentative assignment of the bands of the spectra to its functional groups was performed in order to identify which group is involved in an interaction with copper gluconate/TEA. The C═O stretching absorption bands appear in the region of 1870-1540 cm^−1. The position of the carbonyl bands is affected by several factors including intermolecular and intramolecular hydrogen bonding. […] This conversion to the carboxylate form was confirmed by HPLC analysis. […]

| liposomal loading (result in words) ([1]; TEA buffered internal solution pH 7.0, external phosphate buffer pH 7.0, 50° C. (FIG. 1)) | increase of irinotecan/lipid molar ratio ([1]; after 2 min at 50° C.) | increase of irinotecan/lipid molar ratio ([1]; after 60 min at 50° C.) | irinotecan encapsulation efficiency ([1]; copper gluconate/TEA containing liposomes (100 mM copper gluconate/180 mM TEA, pH 7.0)) | irinotecan concentration inside the liposomes upon encapsulation ([1]; intra-liposomal) | irinotecan encapsulation efficiency ([1]; liposomes containing 10 mM sodium gluconate/180 mM TEA, pH 7.0) | irinotecan encapsulation efficiency ([1]; liposomes containing TEA/phosphate buffer (150 mM TEA, 95 mM phosphate, pH 7.0), 0.2:1 drug to lipid (mol:mol)) | drug loading (result in words) ([1]; liposomes containing copper gluconate adjusted to pH 7.0 with NaOH (no TEA)) | drug encapsulation (result in words) ([1]; liposomes containing sucrose phosphate buffer (no TEA)) | reduction of the amount of drug loading ([1]; liposomes with 100 mM copper gluconate, TEA decreased to 90 mM, pH 7.0 (FIG. 11)) | irinotecan encapsulation ([1]; liposomes with 100 mM copper gluconate, TEA increased to 270 mM, pH 7.0 (FIG. 11)) | liposomal encapsulation (result in words) [2] | form of irinotecan in solution ([3]; pH 7.0 (data not shown)) | form of irinotecan in solution ([3]; pH 8.7, confirmed by HPLC) | Structure (SMILES) | liposomal encapsulation (result in words) ([1]; triethanolamine hydrochloride internal solution, pH 7.0) | liposomal encapsulation (result in words) ([1]; triethanolamine/sodium gluconate/HCl internal solution, pH 7.0) |
| --- | --- | --- | --- | --- | --- | --- | --- | --- | --- | --- | --- | --- | --- | --- | --- | --- |
| – | – | – | – | – | – | – | – | – | – | – | – | – | – | COc1cccc2c1C(=O)c1c(O)c3c(c(O)c1C2=O)C[C@@](O)(C(C)=O)C[C@@H]3O[C@H]1C[C@H](N)[C@H](O)[C@H](C)O1 [daunorubicin] | successfully encapsulated | successfully encapsulated |
| successfully loaded | 0.08 μmol irinotecan/μmol lipid | 0.13 μmol irinotecan/μmol lipid | approximately 70% | > 50 mM | 70% | approximately 70% | negligible; also recorded: no loading | no drug encapsulation | 50% | approximately 90% | successfully encapsulated | predominantly in its lactone form | primarily in the carboxylate form | CCc1c2c(nc3ccc(OC(=O)N4CCC(N5CCCCC5)CC4)cc13)-c1cc3c(c(=O)n1C2)COC(=O)[C@]3(O)CC [irinotecan] | – | – |
